Structures can show the parent of a compound that is named as a salt. Where two headings read alike, the source gives them in different places.
Assays:
[1] = Impurities in AeroVanc vancomycin powder stored for three months at 5° C. and 25° C., improved HPLC impurity method; type: physicochemical
Description: Calculate the concentration of each individual impurity in samples 1A, 2A and 3A, as follows:
Where: • I %i=Impurity concentration in sample 1A, 2A or 3A (as percentage) • 10=Dilution factor (50 mL/5.0 mL) • CV=Vancomycin concentration in sample solutions 1B, 2B or 3B (μg/mL) • Ci=Concentration of impurity in sample solution 1A, 2A or 3A (μg/mL) • Ci,total=Total concentration of impurities in sample solutions 1A, 2A or 3A
The method disclosed herein was also applied to the determination of degradation products of AeroVanc vancomycin powder stored for three months at 5° C. and 25° C.

[2] = Stated stability and handling properties; type: physicochemical; conditions: reference standards handling
Description: Vancomycin is a potent antibiotic reserved for serious drug-resistant bacterial infections including intravenous infusion for complicated infection (including MRSA) and oral administration for severe gastro-intestinal (GI) infections caused by Clostridium difficile. It was first isolated from soil bacterium (Amycolatopis orientalis) by Kornfeld in 1953, and first commercialized by Eli Lilly in 1954. Vancomycin, which is listed on the WHO's List of Essential Medicines, is a complex glycopeptide derived from N. orientalis with significant analytical challenges, including the presence of at least 12 identified impurities and a greater number of unknown impurities. […] Vancomycin has six ionizable groups and some of the impurities have seven. It is difficult to handle (high surface energy) and difficult to formulate. AeroVanc is a dry-powder inhalation product (DPI) under development for the treatment of methicillin resistant S. aureus (MRSA) infections in the lungs of cystic fibrosis patients. AeroVanc (vancomycin hydrochloride inhalation powder) contains the antibiotic and a single excipient, L-leucine. AeroVanc comprises a dry powder formulation which is delivered to the lungs by oral inhalation using a unit dose delivery device.

[3] = background statement; cited from earlier work
[4] = Impurity profiles of vancomycin degraded in solution and solid state (FIG. 22); type: physicochemical
Description: The method disclosed herein was successfully applied to the determination of degradation products of vancomycin in the solution and solid states.

[5] = AeroVanc vancomycin powder stored three months at 5° C.
[6] = AeroVanc vancomycin powder stored three months at 25° C.

| Molecule | Impurity (%) [1, 5] [%] | Impurity (%) [1, 6] [%] | also measured |
| --- | --- | --- | --- |
| Des-(amido)-aspartyl-vancomycin (CDP-1 minor) [CDP-1minor] | 0.017 | 0.026 |  |
| Monodechloro-(2)-vancomycin | 0.069 | 0.072 |  |
| CC(C)C[C@@H](N)C(=O)N[C@H]1C(=O)N[C@@H](CC(N)=O)C(=O)N[C@H]2C(=O)N[C@H]3C(=O)N[C@H](C(=O)N[C@H](C(=O)O)c4cc(O)cc(O)c4-c4cc3ccc4O)[C@H](O)c3ccc(c(Cl)c3)Oc3cc2cc(c3O[C@@H]2O[C@H](CO)[C@@H](O)[C@H](O)[C@H]2O[C@H]2C[C@](C)(N)[C@H](O)[C@H](C)O2)Oc2ccc(cc2Cl)[C@H]1O [N-demethyl, N-demethyl-vancomycin (EP Impurity A)] | 1.757 | 1.722 |  |
| De-((L-asn)-L-gln-vancomycin (EP Impurity B) [De-(L-Asn)-L-Gln] | 0.152 | 0.151 |  |
| Des-(amido)-succinimido- vancomycin [Des-amido-succinimido] | 0.577 | 0.759 |  |
| Cis-chloro-(2)-vancomycin | 0.194 | 0.200 |  |
| CN[C@H](CC(C)C)C(=O)N[C@H]1C(=O)N[C@@H](CC(N)=O)C(=O)N[C@H]2C(=O)N[C@H]3C(=O)N[C@H](C(=O)N[C@H](C(=O)O)c4cc(O)cc(O)c4-c4cc3ccc4O)[C@H](O)c3ccc(c(Cl)c3)Oc3cc2cc(c3O[C@@H]2O[C@H](CO)[C@@H](O)[C@H](O)[C@H]2O[C@H]2C[C@](C)(N)[C@H](O)[C@H](C)O2)Oc2ccc(cc2Cl)[C@H]1O [Vancomycin HCl, vancomycin hydrochloride] |  |  | light sensitivity and hygroscopicity [2]: light sensitive and hygroscopic |
| Agluco-vancomycin (EP Impurity C) | 0.139 | 0.163 |  |
| CN[C@H](CC(C)C)C(=O)N[C@H]1C(=O)N[C@@H](CC(N)=O)C(=O)N[C@H]2C(=O)N[C@H]3C(=O)N[C@H](C(=O)N[C@H](C(=O)O)c4cc(O)cc(O)c4-c4cc3ccc4O)[C@H](O)c3ccc(c(Cl)c3)Oc3cc2cc(c3O[C@@H]2O[C@H](CO)[C@@H](O)[C@H](O)[C@H]2O[C@H]2C[C@](C)(N)[C@H](O)[C@H](C)O2)Oc2ccc(cc2Cl)[C@H]1O [Vancomycin] |  |  | stability at room temperature [3]: unstable at room temperature; net charge (at high pH): −4; net charge (at low pH): +2; net charge (plateau region between pH 3.5 and 5.5): +1; impurity profile of degraded vancomycin ([4]; degraded in aqueous solution, compared to the degraded solid): larger amounts of CDP-1 Minor, CPD-1 Major and additional unknowns; impurity profile of degraded vancomycin ([4]; degraded solid, compared to the degraded aqueous solution): increased desamido-succinimide vancomycin and agluco vancomycin |
| Desvancosamino-vancomycin (EP Impurity D) [Des-vancosamino] | 0.343 | 0.398 |  |
| Monodechloro-(6)-vancomycin [Mono-dechloro-(6)] | 0.679 | 0.671 |  |
| CC(C)C[C@H](C(=O)N[C@H]1C(=O)N[C@@H](CC(N)=O)C(=O)N[C@H]2C(=O)NC3C(=O)N[C@H](C(=O)N[C@H](C(=O)O)c4cc(O)cc(O)c4-c4cc3ccc4O)[C@H](O)c3ccc(c(Cl)c3)Oc3cc2cc(c3O[C@@H]2OC(CO)C(O)C(O)[C@H]2O[C@H]2C[C@](C)(N)[C@H](O)[C@H](C)O2)Oc2ccc(cc2Cl)[C@H]1O)N(C)C (some centres unmarked) [N-methyl, N-methyl-vancomycin] | 0.019 | 0.027 |  |
| Epi-(26R)-vancomycin [Epi-26(R)] | 0.610 | 0.628 |  |
